According to US20250186433A1, “ACSS2 INHIBITORS AND METHODS OF USE THEREOF” (EpiVario, Inc., priority 2017, published 2025):

How the values were obtained:
ACSS1 = molecular target: T1, ACSS1 (Homo sapiens, UniProt Q9NUB1); assay: Acyl-CoA synthetases selectivity panel: ACSS1; format: biochemical; details: human recombinant protein, substrate acetate, AMP readout by HPLC; read-out: HPLC based activity assays IC50 (UM) ACSS1
T1 construct: purchased Cusabio, China
T1 sequence (Q9NUB1 38-689): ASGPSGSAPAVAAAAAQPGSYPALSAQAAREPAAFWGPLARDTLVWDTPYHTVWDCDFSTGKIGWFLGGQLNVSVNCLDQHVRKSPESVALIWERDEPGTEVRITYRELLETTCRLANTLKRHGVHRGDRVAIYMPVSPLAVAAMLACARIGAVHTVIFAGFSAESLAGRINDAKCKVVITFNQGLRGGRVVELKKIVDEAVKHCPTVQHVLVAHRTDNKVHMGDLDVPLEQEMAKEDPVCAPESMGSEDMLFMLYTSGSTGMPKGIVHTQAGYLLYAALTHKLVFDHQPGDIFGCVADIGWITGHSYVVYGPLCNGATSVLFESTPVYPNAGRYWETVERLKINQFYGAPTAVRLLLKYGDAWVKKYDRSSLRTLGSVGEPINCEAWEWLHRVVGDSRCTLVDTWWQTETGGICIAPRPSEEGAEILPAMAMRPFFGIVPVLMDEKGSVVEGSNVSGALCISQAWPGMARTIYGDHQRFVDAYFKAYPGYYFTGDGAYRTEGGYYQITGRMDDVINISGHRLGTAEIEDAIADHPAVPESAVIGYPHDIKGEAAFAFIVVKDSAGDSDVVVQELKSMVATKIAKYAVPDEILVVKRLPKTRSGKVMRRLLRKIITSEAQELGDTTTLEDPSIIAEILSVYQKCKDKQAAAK
Description: (§1) The biochemical assays for testing the selectivity of the compounds according to this invention, were done using human recombinant proteins (Cusabio, China). The readout of the assays was AMP levels, the […] of the reactions, by HPLC method. The acyl substrates (Sigma-Aldrich) of the assays were as followed: ACSS1/ACSS2—Acetate, AACS-Acetoacetyl, ACSF2—Octanoate and ACSL5—Palmitate. The protein in this panel include ACSS1, the closest homolog of ACSS2, in addition to representative short/medium/long chain acyl-CoA syntatases.

ACSL5 = molecular target: T2, ACSL5 (Homo sapiens, UniProt Q9ULC5); assay: Acyl-CoA synthetases selectivity panel: ACSL5; format: biochemical; details: human recombinant protein, substrate palmitate, AMP readout by HPLC; read-out: HPLC based activity assays IC50 (UM) ACSL5
T2 construct: purchased Cusabio, China
T2 sequence (Q9ULC5 1-683): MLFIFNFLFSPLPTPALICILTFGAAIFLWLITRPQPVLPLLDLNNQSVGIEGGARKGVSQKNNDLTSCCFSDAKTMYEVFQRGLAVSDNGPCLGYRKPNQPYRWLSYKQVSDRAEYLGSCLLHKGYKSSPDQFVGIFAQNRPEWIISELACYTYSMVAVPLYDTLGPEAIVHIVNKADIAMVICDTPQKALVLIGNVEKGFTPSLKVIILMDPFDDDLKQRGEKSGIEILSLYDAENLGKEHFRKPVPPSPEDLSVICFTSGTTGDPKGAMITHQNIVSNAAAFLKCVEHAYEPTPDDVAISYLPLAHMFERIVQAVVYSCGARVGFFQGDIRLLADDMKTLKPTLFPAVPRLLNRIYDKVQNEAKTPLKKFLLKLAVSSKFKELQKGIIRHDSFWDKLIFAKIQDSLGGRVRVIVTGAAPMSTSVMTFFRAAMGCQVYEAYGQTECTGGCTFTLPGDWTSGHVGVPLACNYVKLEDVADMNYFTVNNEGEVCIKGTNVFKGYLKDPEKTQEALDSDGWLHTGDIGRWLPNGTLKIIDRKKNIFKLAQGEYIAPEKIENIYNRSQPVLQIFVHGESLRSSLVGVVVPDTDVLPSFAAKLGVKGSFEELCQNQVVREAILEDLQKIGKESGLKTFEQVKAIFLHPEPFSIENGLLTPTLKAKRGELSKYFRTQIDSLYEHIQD
Description: as §1

ACSF2 = molecular target: T3, ACSF2 (Homo sapiens, UniProt Q96CM8); assay: Acyl-CoA synthetases selectivity panel: ACSF2; format: biochemical; details: human recombinant protein, substrate octanoate, AMP readout by HPLC; read-out: HPLC based activity assays IC50 (UM) ACSF2
T3 construct: purchased Cusabio, China
T3 sequence (Q96CM8 42-615): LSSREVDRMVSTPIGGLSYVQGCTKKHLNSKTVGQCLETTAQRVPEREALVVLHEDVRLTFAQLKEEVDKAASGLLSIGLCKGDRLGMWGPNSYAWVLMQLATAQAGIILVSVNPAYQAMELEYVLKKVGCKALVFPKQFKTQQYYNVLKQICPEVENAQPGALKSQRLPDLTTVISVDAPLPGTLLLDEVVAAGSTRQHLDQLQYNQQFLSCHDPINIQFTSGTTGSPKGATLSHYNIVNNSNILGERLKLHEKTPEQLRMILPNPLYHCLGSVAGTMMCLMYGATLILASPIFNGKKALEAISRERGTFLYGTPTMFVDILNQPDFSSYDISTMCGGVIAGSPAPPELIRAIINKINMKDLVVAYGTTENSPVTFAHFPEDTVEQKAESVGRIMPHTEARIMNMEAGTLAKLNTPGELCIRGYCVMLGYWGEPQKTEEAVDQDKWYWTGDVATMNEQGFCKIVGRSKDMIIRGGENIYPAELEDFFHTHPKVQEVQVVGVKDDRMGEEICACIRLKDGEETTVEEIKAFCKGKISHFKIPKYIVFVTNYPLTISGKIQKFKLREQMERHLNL
Description: as §1

ACSS2 [1] = molecular target: T4, ACSS2 (Homo sapiens, UniProt Q9NR19); assay: Acyl-CoA synthetases selectivity panel: ACSS2; format: biochemical; set-up: purchased Cusabio, China; details: human recombinant protein, substrate acetate, AMP readout by HPLC; read-out: HPLC based activity assays IC50 (UM) ACSS2
T4 sequence (Q9NR19 whole entry): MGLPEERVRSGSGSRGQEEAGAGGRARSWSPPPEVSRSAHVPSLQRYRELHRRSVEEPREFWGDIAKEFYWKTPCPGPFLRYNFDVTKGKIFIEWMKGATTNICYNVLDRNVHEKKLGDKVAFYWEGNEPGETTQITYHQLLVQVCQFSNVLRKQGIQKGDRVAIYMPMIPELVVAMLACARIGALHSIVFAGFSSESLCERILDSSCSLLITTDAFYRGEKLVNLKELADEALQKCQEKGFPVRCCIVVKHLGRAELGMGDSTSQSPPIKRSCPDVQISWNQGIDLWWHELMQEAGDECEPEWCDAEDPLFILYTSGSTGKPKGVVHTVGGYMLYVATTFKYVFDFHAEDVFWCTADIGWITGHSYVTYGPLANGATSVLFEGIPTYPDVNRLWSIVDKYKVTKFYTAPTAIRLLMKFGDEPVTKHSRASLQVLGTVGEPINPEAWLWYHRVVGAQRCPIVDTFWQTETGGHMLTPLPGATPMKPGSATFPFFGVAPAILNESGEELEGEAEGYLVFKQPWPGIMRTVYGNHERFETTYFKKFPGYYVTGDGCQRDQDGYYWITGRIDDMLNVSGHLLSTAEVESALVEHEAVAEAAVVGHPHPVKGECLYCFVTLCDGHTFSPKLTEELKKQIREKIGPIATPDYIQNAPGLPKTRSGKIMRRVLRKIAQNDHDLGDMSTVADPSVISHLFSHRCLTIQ
Description: as §1

AACS = molecular target: T5, AACS (Homo sapiens, UniProt Q86V21); assay: Acyl-CoA synthetases selectivity panel: AACS; format: biochemical; details: human recombinant protein, substrate acetoacetyl, AMP readout by HPLC; read-out: HPLC based activity assays IC50 (UM) AACS
T5 construct: purchased Cusabio, China
T5 sequence (Q86V21 1-672): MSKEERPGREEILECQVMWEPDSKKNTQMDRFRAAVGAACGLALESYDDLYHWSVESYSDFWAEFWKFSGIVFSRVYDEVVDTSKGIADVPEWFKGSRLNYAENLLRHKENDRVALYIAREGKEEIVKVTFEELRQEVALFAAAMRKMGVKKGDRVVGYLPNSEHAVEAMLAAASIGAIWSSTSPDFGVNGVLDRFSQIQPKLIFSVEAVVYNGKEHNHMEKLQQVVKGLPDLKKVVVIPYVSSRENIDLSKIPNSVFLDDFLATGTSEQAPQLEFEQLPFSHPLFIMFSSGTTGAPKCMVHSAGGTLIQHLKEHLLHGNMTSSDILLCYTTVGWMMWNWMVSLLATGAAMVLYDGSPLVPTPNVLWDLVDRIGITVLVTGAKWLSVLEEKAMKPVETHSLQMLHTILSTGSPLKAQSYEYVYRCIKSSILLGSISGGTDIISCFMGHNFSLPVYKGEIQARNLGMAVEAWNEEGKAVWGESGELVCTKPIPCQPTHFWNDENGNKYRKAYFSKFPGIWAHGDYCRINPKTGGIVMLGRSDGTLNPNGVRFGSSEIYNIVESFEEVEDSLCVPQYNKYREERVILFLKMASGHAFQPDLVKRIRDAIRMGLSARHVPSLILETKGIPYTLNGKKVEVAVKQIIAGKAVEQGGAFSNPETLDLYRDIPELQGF
Description: as §1

ACSS2 [2] = molecular target: T4, ACSS2; assay: cell-based
Experimental: The cellular activity of ACSS2 was based on tracing the incorporation of carbons from ^13C-Acetate into fatty-acids.
BT474/MDA-MB-468 cells growing in DMEM+25 mM D-glucose+1 mM sodium pyruvate+10% FBS+2 mM glutamine were plated in 12-well plates at 0.4×10^6 cells/well. The cells were then incubated at CO2 incubator for 24 hrs at hypoxic conditions (1% O2) before treated with compounds. At day 2, the medium was replaced to DMEM medium containing 15 mM Glucose, 1 mM Pyruvate, 0.65 mM Glutamine, 1% Dialyzed serum, 3.5 ug/ml Biotin, 0.2 mM ^13C-Acetate and various concentrations of the compounds. The cells were incubated for 5 hours at CO2 incubator in hypoxic conditions (1% O2). At the end of the 5 hours' incubation, the cells were washed twice with cold PBS, harvested in 1 ml PBS and transfer into V-shaped HPLC glass vials and centrifuge for 10 min at 600 g at 4 C. The supernatant was removed, and the cells' pellets were stored at −80° C. until taken for saponification.
The cells pellets were resuspended with 0.5 ml of the 90% Methanol, 10% H2O, 0.3M NaOH mixture and incubated at 80° C. for 60 min. Following the incubation, 50 μl formic acid and 0.4 ml hexane were added and the mixture was vortexed for 2 minutes. The vials were left few minutes for phases separation and then 200 μl of the top hexane phase extracted to a new glass vial. The hexane was dried under nitrogen and reconstituted in 100 μl of Methanol: Acetonitrile 5:3 mixture. The solution transferred to Eppendorf tubes, spun down at 17000G for 20 min and transferred to LC-MS vials.
The analysis was performed with Thermo Q Exactive mass spectrometer with HESI probe and Dionex Ultimate 3000 UHPLC system. The separations were performed on Phenomenex Kintex 2.6u XB-C18 100A 150×2.10 mm column by injecting 5 ul of each sample. The chromatography started with a linear gradient from 85% to 100% of organic solvent (Methanol: Acetonitrile 1:1) versus 10 mM Ammonium Acetate buffer pH 4.7 for 3.5 minutes, followed by 4.5 minutes of isocratic 100% organic solvent and then 3 minutes of isocratic initial conditions, at a flow rate of 0.3 ul/min. The MS source conditions that were used: capillary temperature 325° C., sheath flow 25, aux flow 15, spray voltage 3.8 kV, aux temperature 300° C. The data collected from Negative ion mode at resolution of 70000 at Full-MS mode in 75-1000 m/z range.
The analysis of ^13C acetate incorporation into fatty acids (palmitate, myristate and stearate) performed on TraceFinder 3.2.512.0. The negative control areas and ^13C isotopic theoretical natural abundance were subtracted from the samples areas. Total ^13C incorporation for each fatty-acid (palmitate, myristate and stearate) was calculated and presented as percentage of the total amount.

ACSS2 [3] = molecular target: T6, ACSS2 (Mus musculus, UniProt Q9QXG4); assay: PK-PD study: inhibition of 13C incorporation into fatty-acid (palmitate) in vivo; details: C57BL/6J mice, 50 mg/kg IP, 13C-ETOH PO at 1 h, plasma at 3 h, read-out: inhibition of 13C-Acetate incorporation into fatty-acids (palmitate)
T6 construct: from tissue; host or cells: whole animal, C57BL/6J mice; plasma palmitate read out
T6 sequence (Q9QXG4 whole entry): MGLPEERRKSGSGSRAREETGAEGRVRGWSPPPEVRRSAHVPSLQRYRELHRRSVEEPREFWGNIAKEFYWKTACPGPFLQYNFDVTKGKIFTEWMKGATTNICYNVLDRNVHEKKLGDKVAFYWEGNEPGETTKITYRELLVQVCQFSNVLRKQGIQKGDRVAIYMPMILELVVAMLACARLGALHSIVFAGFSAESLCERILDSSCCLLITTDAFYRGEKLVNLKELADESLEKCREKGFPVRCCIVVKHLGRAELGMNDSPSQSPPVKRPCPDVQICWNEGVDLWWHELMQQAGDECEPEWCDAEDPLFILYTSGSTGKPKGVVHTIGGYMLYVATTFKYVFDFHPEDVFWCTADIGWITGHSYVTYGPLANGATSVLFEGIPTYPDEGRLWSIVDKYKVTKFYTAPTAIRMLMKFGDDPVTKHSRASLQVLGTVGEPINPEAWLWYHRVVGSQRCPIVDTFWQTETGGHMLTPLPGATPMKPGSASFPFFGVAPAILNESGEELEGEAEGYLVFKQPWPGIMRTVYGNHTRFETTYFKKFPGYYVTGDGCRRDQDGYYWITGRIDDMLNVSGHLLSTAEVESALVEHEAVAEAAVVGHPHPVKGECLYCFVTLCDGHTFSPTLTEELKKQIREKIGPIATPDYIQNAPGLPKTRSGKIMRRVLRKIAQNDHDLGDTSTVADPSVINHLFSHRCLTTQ
Experimental: Overnight fasted Female C57BL/6J mice (3n/group) were dosed at time=0 h with the indicated compound at 50 mg/kg IP (vehicle: 20% Solutol, 80% 0.2M Phosphate buffer pH 7.0). At time 1 h, 13C-ETOH (2.25 gr/kg 13C-ETOH dissolved in saline to a total volume of 10 ml/kg) were administrated by PO. At time 3 h plasma samples were taken for Fatty-acid analysis by Mass-spectrometry. The incorporation of ^13C into palmitate was done by Mass-spectrometry after saponification of the samples and the percent incorporation of ^13C was calculated.

[4] = test system: MDA-MB-468 breast cancer cells xenograft; assay: In-vivo efficacy study in MDA-MB-468 breast cancer cells xenograft; details: 100 mg/kg orally once daily; female NMRI nude mice
Experimental: An in-vivo efficacy study was carried out by Charles-River Laboratories at the Freiburg, Germany site.
Tumor fragments from Breast cancer cell line MDA-MB-468 passaged as subcutaneous xenograft were subcutaneously implanted into female NMRI nude mice (Crl:NMRI-Foxnlnu). The animals were randomized into groups (n=10) when tumors volume reached 50 to 250 mm3. […] Body weights and tumor volume [mm3] by caliper were measured twice weekly.

HCT116 = assay: In-vivo model that does not utilize acetate (HCT116); details: daily oral dosing

Row | SMILES | IC50 (ACSS1) | IC50 (ACSL5) | IC50 (ACSF2) | IC50 (ACSS2 [1]) | IC50 (AACS) | IC50 (ACSS2 [2]) | also measured
1 | CC1=NN(c2ccccc2)C(=O)C1C(=O)Nc1cccc(-c2ccco2)c1 (centres unmarked) [compound 108] | 10 to 100 µM | 76 µM | 36 µM | < 0.001 µM | 84 µM |  | 
2 | CC1=NN(c2ccccc2)C(=O)C1C(=O)Nc1cccc(C(C)(F)F)c1 (centres unmarked) [compound 141] | 10 to 100 µM | > 100 µM | 160 µM | 0.001 to 0.01 µM | 149 µM |  | 
3 | CC(=O)Cc1cccc(NC(=O)C2C(=O)N(c3ccccc3)N=C2C)c1 (centres unmarked) [compound 145] |  |  |  |  |  | 0.1 to 1 µM | 
4 | COC(=O)c1cccc(N2N=C(C)C(C(=O)Nc3cccc(-c4cnccn4)c3)C2=O)c1 (centres unmarked) [compound 164] |  |  |  |  |  | 0.1 to 1 µM | 
5 | CC1=NN(c2cccc(C(F)(F)F)c2)C(=O)C1C(=O)Nc1cccc(-c2cnccn2)c1 (centres unmarked) [compound 166] |  |  |  |  |  | > 1 µM | 
6 | COC(=O)c1cccc(N2N=C(C)C(C(=O)Nc3cccc(-c4ncc[nH]4)c3)C2=O)c1 (centres unmarked) [compound 167, Methyl 3-(4-((3-(1H-imidazol-2-yl)phenyl)carbamoyl)-3-methyl-5-oxo-4,5-dihydro-1H-pyrazol-1-yl)benzoate] |  |  |  |  |  | 0.1 to 1 µM | 
7 | CC1=NN(c2ccccc2)C(=O)C1C(=O)Nc1cccc(C(=O)N(C)C)c1 (centres unmarked) [compound 220] |  |  |  |  |  | > 1 µM | 
8 | COc1ccc(N2N=C(C)C(C(=O)Nc3cccc(C(C)(F)F)c3)C2=O)cn1 (centres unmarked) [compound 242, N-(3-(1,1-difluoroethyl)phenyl)-1-(6-methoxypyridin-3-yl)-3-methyl-5-oxo-4,5-dihydro-1H-pyrazole-4-carboxamide] |  |  |  |  |  |  | inhibition at 50 mg/kg (ACSS2 [3]): 84%
9 | CC1=NN(c2ccc(C(F)(F)F)cc2)C(=O)C1C(=O)Nc1cccc(C(C)(F)F)c1 (centres unmarked) [compound 264, N-(3-(1,1-difluoroethyl)phenyl)-3-methyl-5-oxo-1-(4-(trifluoromethyl)phenyl)-4,5-dihydro-1H-pyrazole-4-carboxamide] | 1 to 10 µM | 115 µM | 43 µM | 0.001 to 0.01 µM | 52 µM |  | 
10 | COc1ccc(N2N=C(C)C(C(=O)Nc3cccc(-c4ccco4)c3)C2=O)cc1 (centres unmarked) [compound 266, N-(3-(furan-2-yl)phenyl)-1-(4-methoxyphenyl)-3-methyl-5-oxo-4,5-dihydro-1H-pyrazole-4-carboxamide] | 10 to 100 µM | 35 µM | 51 µM | < 0.001 µM | 64 µM |  | 
11 | COC(=O)c1cccc(N2N=C(C)C(C(=O)Nc3cccc(-c4ccco4)c3)C2=O)c1 (centres unmarked) [compound 269, methyl 3-(4-((3-(furan-2-yl)phenyl)carbamoyl)-3-methyl-5-oxo-4,5-dihydro-1H-pyrazol-1-yl)benzoate] | 10 to 100 µM | 45 µM | 28 µM | < 0.001 µM | 19 µM |  | 
12 | CC1=NN(c2ccc(OC(F)(F)F)cc2)C(=O)C1C(=O)Nc1cc(C(C)(F)F)cs1 (centres unmarked) [compound 296, N-(4-(1,1-difluoroethyl)thiophen-2-yl)-3-methyl-5-oxo-1-(4-(trifluoromethoxy)phenyl)-4,5-dihydro-1H-pyrazole-4-carboxamide] |  |  |  |  |  |  | tumor growth in MDA-MB-468 xenograft model [4]: inhibits tumor growth
13 | CC1=NN(c2ccc(OC(F)F)cc2)C(=O)C1C(=O)Nc1cccc(C(C)(F)F)c1 (centres unmarked) [compound 298, N-(3-(1,1-difluoroethyl)phenyl)-1-(4-(difluoromethoxy)phenyl)-3-methyl-5-oxo-4,5-dihydro-1H-pyrazole-4-carboxamide] |  |  |  |  |  |  | tumor growth in MDA-MB-468 xenograft model [4]: significant tumor growth delay; efficacy in a model that does not utilize acetate (HCT116) (HCT116): no efficacy
14 | CC1=NN(c2ccc(OC(F)F)c(-c3cnccn3)c2)C(=O)C1C(=O)Nc1cccc(C(C)(F)F)c1 (centres unmarked) [compound 328, N-[3-(1,1-difluoroethyl)phenyl]-1-[4-(difluoromethoxy)-3-pyrazin-2-yl-phenyl]-3-methyl-5-oxo-4H-pyrazole-4-carboxamide] |  |  |  |  |  |  | inhibition at 50 mg/kg (ACSS2 [3]): 87%
